From PubChem BioAssay (NCI)
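Cultured in 96-well plates, cells were exposed to test compound for 48 hours across five concentrations. The concentration for full growth arrest is given as TGI.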

Columns and labels:
Test in all cases: NCI-60 cell line screen, 48 h
[1] = tested on: MALME-3M melanoma
[2] = tested on: HS 578T breast
[3] = tested on: UO-31 renal
[4] = tested on: HCT-15 colon
[5] = tested on: MDA-N
[6] = tested on: SF-295 CNS
[7] = tested on: K-562 leukemia
[8] = tested on: PC-3 prostate
[9] = tested on: LOX IMVI melanoma
[10] = tested on: SK-MEL-5 melanoma
[11] = tested on: HOP-62 NSCLC

Structure (SMILES)	TGI [1] [µM]	TGI [2] [µM]	TGI [3] [µM]	TGI [4] [µM]	TGI [5] [µM]	TGI [6] [µM]	TGI [7] [µM]	TGI [8] [µM]	TGI [9] [µM]	TGI [10] [µM]	TGI [11] [µM]
Cc1nc(Cl)c(CBr)c(Cl)n1	2.92	5.94	3.2	4.37	2.97	22.9	0.887	3.13	1.77	2.88	4.03
O=C1/C(=C/c2ccc(Br)s2)NC(=S)N1CN1CCOCC1	> 100	> 100	> 100	> 100	> 100	> 100	99.2	> 100	61.4	> 100	> 100
c1ccc2c(c1)CCCN1CCc3ccccc3C21 (configuration not stated)	> 100	> 100	> 100	> 100	70.4	> 100	> 100	> 100	> 100	70.9	> 100
Cc1nc2ccc([N+](=O)[O-])cc2c(=O)n1C(=S)Nc1cccc(Cl)c1	49.1	72.4	21.5	31	39.4	53.6	98.5	54.1	35.3	28.9	44.6
CC1=CC=CC(C)(C)CC1(O[Si](C)(C)C)C(F)(F)F (configuration not stated)	> 100	> 100	> 100	> 100	> 100	> 100	> 100	> 100	> 100	> 100	> 100
CN1C(=O)CN(NC(=O)C2=C(O)c3ccc(Br)cc3S(=O)(=O)N2)C1=S	> 100	> 100	> 100	> 100	> 100	> 100	> 100	> 100	> 100	> 100	> 100
CO/N=C1/c2sccc2[C@H](NC(=O)CNC(=O)OC(C)(C)C)[C@@H]1O	> 100	> 100	> 100	> 100	> 100	> 100	> 100	> 100	> 100	> 100	> 100
O=C(CCc1ccc(O)cc1)c1c(O)cc(O)cc1OC1OC(CO)C(O)C(O)C1O (configuration not stated)	> 100	> 100	> 100	> 100	> 100	> 100	> 100	> 100	> 100	> 100	> 100
NCCCC(N)C(=O)O (configuration not stated)	> 100	> 100	> 100	> 100	> 100	> 100	> 100	> 100	> 100	> 100	> 100
O=C1NC(=S)NC(=O)C1C(c1ccccc1[N+](=O)[O-])C1C(=O)NC(=S)NC1=O	> 100	> 100	> 100	> 100	> 100	> 100	> 100	> 100	> 100	> 100	> 100
C=CC/C(C(=O)OC)=C(/C(=O)OC)N(CCC)CCC	> 100	> 100	> 100	> 100	> 100	> 100	> 100	> 100	> 100	> 100	> 100
CN1CN(c2ccccc2)C2(CCN(CCCC3(c4cccs4)OCCO3)CC2)C1=O	> 100	> 100	> 100	> 100	> 100	> 100	> 100	> 100	> 100	> 100	> 100
